Patent publication US10231954B2, “Neurodegenerative therapies” (LYTIX BIOPHARMA AS, priority 2014, dated 2019)

Experiments:
Format in all cases: biochemical
Conditions in all cases: 100 micromolar inhibitor concentration, 100 is no change
PAK6 = PAK6 (Homo sapiens, UniProt Q9NQU5); assay: Kinase profiling PAK6
Source text: (§1) Any value less that 25 is considered to be highly significant inhibition.

PAK2 = PAK2 (Homo sapiens, UniProt Q13177); assay: Kinase profiling PAK2
Source text: as §1

MARK1 = MARK1 (Homo sapiens, UniProt Q9P0L2); assay: Kinase profiling MARK1
Source text: as §1

DDR2 = target: T1, DDR2 (Homo sapiens, UniProt Q16832); assay: Kinase profiling DDR2
T1 sequence (Q16832 22-855): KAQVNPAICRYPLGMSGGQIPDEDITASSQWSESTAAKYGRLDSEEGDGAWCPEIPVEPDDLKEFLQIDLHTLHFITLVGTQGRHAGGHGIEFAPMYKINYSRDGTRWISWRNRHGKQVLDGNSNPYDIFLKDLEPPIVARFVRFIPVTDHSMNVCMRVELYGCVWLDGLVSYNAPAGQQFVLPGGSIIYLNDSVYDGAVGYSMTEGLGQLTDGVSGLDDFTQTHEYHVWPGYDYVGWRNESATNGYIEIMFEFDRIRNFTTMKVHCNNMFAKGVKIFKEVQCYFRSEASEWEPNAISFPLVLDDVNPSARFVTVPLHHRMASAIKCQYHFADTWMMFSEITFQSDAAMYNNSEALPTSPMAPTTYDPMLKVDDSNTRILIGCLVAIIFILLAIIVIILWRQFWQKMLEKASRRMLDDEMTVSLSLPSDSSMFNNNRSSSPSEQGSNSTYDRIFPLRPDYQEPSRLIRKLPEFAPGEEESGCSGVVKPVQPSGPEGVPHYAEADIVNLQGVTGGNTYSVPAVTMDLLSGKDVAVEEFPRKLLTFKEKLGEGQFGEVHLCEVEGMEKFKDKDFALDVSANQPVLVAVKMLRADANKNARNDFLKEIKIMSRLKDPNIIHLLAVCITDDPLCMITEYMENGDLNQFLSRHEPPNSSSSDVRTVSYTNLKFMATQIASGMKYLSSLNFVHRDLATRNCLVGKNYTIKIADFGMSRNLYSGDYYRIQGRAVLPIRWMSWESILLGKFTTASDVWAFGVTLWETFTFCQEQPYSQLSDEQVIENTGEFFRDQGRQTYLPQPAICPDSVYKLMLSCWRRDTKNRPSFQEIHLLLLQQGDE
Source text: as §1

DAPK1 = DAPK1 (Homo sapiens, UniProt P53355); assay: Kinase profiling DAPK1
Source text: as §1

TTBK1 = TTBK1 (Homo sapiens, UniProt Q5TCY1); assay: Kinase profiling TTBK1
Source text: as §1

EIF2AK3 = target: T2, EIF2AK3 (Homo sapiens, UniProt Q9NZJ5); assay: Kinase profiling EIF2AK3
T2 sequence (Q9NZJ5 30-1116): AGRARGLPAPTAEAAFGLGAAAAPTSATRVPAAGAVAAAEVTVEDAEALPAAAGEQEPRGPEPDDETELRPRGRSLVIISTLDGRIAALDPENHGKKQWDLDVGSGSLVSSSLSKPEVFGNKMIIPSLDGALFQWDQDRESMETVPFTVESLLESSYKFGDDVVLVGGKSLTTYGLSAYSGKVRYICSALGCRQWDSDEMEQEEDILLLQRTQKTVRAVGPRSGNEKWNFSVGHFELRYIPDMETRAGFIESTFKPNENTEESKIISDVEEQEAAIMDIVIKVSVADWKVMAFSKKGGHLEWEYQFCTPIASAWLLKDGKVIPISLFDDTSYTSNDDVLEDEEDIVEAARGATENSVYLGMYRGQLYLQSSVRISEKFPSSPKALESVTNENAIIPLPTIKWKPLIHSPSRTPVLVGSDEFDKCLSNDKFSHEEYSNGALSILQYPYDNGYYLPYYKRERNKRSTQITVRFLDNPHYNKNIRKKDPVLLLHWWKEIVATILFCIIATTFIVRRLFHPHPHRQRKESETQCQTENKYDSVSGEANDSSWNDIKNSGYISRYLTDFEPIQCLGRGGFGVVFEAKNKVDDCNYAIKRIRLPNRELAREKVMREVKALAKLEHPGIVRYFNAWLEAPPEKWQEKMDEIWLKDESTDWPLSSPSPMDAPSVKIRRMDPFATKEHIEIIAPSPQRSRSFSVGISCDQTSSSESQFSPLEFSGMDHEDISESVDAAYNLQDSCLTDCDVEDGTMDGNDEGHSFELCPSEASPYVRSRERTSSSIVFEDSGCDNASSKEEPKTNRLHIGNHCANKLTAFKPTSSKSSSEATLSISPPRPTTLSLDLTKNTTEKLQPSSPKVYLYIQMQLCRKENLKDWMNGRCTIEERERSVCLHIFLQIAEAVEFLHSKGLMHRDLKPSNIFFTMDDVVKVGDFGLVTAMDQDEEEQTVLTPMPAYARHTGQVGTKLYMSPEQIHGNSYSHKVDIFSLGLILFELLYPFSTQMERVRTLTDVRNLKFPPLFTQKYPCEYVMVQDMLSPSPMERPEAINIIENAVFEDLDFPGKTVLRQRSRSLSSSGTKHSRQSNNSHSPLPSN
Source text: as §1

Sequence of MARK1 (Q9P0L2 whole entry, species assumed): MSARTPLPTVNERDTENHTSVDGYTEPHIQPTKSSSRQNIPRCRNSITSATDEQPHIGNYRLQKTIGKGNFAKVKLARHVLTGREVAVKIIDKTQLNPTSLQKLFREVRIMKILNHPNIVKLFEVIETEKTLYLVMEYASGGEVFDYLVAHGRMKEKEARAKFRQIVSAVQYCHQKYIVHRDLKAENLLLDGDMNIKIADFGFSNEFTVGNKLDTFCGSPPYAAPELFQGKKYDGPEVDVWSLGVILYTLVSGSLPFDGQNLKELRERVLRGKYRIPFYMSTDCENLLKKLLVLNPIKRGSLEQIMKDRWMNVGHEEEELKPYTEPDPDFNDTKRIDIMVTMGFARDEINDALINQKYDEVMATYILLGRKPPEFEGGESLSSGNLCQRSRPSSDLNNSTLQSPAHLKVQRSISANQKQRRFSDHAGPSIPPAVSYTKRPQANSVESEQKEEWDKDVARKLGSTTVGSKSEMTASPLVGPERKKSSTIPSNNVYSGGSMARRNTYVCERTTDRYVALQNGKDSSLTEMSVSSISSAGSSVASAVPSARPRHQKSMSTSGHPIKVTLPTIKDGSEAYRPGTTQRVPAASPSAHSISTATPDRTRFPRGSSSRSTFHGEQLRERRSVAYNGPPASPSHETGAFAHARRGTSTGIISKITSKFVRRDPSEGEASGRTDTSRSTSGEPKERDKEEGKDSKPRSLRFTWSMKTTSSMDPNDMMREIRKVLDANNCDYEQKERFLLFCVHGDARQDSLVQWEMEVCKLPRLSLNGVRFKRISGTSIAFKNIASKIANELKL
Sequence of PAK2 (Q13177 whole entry, species assumed): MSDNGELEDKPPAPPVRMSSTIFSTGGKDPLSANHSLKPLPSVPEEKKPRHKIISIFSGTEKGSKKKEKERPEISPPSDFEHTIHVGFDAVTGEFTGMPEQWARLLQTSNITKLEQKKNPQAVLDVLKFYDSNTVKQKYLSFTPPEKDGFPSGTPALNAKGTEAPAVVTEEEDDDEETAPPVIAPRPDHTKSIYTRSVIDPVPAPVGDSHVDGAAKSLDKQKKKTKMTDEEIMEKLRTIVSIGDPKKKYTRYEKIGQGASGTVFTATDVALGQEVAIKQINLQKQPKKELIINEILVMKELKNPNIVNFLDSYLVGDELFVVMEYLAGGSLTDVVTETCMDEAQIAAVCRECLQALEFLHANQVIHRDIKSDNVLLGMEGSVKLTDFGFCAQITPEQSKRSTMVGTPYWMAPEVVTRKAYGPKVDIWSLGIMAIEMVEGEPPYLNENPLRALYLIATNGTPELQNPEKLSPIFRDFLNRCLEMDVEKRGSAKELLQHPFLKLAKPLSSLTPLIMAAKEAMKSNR
Sequence of TTBK1 (Q5TCY1 whole entry, species assumed): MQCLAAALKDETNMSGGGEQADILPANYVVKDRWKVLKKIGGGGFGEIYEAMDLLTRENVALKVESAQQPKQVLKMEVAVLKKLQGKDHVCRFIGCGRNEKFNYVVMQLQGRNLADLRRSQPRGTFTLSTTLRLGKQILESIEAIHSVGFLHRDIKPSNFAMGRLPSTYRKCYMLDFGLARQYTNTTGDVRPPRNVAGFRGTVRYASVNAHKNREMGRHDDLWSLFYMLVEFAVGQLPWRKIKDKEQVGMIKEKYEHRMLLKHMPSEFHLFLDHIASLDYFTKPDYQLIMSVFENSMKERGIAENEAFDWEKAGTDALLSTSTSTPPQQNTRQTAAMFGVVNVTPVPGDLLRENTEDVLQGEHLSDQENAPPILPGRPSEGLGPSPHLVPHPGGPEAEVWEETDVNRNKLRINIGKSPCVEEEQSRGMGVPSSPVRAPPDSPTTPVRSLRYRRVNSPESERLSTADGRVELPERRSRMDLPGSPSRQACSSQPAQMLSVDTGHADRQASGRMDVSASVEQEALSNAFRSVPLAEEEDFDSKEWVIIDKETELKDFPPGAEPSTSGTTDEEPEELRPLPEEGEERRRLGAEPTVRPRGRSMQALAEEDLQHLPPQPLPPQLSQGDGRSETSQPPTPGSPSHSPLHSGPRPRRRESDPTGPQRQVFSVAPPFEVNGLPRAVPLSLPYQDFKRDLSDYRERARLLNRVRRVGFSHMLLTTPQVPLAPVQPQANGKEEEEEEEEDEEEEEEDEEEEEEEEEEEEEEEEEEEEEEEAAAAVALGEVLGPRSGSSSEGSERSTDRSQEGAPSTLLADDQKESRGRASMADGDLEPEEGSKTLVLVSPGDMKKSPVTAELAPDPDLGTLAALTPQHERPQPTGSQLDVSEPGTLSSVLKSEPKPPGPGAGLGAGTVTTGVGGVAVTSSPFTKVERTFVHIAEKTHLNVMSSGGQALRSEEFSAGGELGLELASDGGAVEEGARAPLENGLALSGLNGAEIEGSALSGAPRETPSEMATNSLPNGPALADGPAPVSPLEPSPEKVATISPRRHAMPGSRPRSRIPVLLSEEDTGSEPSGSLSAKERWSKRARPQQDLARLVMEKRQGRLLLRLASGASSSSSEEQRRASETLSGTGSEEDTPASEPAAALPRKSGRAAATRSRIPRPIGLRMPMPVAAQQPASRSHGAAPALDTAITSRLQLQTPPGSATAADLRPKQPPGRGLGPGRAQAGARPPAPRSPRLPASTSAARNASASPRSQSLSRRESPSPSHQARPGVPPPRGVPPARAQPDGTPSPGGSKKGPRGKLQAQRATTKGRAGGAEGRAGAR
Sequence of DAPK1 (P53355 whole entry, species assumed): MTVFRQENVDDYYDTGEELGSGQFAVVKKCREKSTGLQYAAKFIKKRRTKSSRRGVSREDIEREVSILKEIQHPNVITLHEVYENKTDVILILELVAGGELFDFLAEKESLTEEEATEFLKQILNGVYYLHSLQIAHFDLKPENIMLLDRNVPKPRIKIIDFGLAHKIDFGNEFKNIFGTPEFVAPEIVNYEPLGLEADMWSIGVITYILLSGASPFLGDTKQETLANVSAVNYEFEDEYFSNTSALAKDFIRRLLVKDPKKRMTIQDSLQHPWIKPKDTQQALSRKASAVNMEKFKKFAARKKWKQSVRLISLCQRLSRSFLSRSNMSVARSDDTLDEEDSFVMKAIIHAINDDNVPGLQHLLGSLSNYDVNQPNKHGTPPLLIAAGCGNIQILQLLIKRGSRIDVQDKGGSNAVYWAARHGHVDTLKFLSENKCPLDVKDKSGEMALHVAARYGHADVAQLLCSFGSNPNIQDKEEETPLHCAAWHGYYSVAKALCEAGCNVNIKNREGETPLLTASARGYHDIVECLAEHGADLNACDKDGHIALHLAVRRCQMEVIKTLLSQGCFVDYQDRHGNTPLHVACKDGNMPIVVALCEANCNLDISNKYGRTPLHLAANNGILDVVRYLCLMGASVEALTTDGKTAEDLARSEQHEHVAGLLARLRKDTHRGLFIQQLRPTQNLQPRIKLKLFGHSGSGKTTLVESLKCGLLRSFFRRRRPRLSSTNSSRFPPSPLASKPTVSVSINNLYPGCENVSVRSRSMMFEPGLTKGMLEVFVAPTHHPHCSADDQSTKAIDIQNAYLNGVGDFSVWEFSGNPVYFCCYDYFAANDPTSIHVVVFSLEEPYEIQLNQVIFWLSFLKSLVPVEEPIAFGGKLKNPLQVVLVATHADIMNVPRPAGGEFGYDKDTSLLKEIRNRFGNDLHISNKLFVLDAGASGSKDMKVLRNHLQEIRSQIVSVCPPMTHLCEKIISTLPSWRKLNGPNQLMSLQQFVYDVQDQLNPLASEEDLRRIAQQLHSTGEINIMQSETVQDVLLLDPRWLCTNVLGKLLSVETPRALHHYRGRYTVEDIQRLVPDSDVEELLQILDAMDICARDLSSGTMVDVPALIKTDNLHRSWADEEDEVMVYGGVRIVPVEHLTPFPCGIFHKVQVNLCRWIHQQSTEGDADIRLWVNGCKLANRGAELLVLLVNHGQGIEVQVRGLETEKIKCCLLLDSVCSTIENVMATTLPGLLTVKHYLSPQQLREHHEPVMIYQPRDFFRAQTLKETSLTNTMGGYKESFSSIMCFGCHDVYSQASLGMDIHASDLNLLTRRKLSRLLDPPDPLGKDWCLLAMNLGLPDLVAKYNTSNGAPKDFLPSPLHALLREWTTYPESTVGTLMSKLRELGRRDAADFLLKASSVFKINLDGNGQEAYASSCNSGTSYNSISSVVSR
Sequence of PAK6 (Q9NQU5 whole entry, species assumed): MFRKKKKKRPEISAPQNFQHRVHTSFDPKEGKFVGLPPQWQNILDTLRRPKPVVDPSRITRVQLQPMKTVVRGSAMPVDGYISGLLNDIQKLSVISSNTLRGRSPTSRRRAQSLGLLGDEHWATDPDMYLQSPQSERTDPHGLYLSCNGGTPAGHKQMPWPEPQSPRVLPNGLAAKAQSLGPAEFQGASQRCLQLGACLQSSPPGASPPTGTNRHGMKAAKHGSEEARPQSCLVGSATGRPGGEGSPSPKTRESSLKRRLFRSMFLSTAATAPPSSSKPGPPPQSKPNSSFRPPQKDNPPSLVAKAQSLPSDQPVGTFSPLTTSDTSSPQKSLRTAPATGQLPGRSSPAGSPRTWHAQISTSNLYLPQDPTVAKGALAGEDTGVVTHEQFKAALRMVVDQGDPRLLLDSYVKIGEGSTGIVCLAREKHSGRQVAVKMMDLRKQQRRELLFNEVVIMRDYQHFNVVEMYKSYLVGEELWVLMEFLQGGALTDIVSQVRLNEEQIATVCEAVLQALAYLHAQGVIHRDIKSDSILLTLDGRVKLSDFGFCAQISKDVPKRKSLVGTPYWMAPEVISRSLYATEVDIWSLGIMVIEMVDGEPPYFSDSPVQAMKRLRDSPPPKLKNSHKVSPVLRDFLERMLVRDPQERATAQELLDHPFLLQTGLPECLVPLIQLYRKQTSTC

| SMILES | residual kinase activity, PAK6 (PAK6) | residual kinase activity, PAK2 (PAK2) | residual kinase activity, MARK1 (MARK1) | residual kinase activity, DDR2 (DDR2) | residual kinase activity, DAPK1 (DAPK1) | residual kinase activity, TTBK1 (TTBK1) | residual kinase activity, EIF2AK3 (EIF2AK3) | remaining activity at 100 µM (PAK6; read-out: residual kinase activity, PAK6) [%] | remaining activity at 100 µM (PAK2; read-out: residual kinase activity, PAK2) [%] | remaining activity at 100 µM (MARK1; read-out: residual kinase activity, MARK1) [%] | remaining activity at 100 µM (DDR2; read-out: residual kinase activity, DDR2) [%] | remaining activity at 100 µM (DAPK1; read-out: residual kinase activity, DAPK1) [%] | remaining activity at 100 µM (TTBK1; read-out: residual kinase activity, TTBK1) [%] | remaining activity at 100 µM (EIF2AK3; read-out: residual kinase activity, EIF2AK3) [%] |
| --- | --- | --- | --- | --- | --- | --- | --- | --- | --- | --- | --- | --- | --- | --- |
| CC(=O)Nc1nc2cc(C)ccc2s1 [Compound 03-76] | 108 | 102 | 94 | 110 | 82 | 84 | 97 |  |  |  |  |  |  |  |
| CC(=O)Nc1nc2cc(F)ccc2s1 [Compound 03-77] |  |  |  |  |  |  |  | 106 | 11 | 80 | 101 | 82 | 80 | 99 |
| O=C(Nc1nc2ccc(O)cc2s1)c1ccncc1 [Compound 08-42] | 93 | 108 | 75 | 89 | 32 | 70 | 59 |  |  |  |  |  |  |  |
| O=C(Nc1nc2ccc(O)cc2s1)c1cccnc1 [Compound 08-44] | 94 | 85 | 83 | 93 | 26 | 47 | 51 |  |  |  |  |  |  |  |
